Measurements taken from ChEMBL document CHEMBL1132968, “Substituent effects on the antibacterial activity of nitrogen-carbon-linked (azolylphenyl)oxazolidinones with expanded activity against the fastidious gram-negative organisms Haemophilus influenzae and Moraxella catarrhalis” (2000).
≈ marks a conversion by molar mass, not a printed value.

Assays:
Type in all cases: functional
Mus musculus [1] = test: Dose required to cure 50% of Staphylococcus aureus infected mice when orally administered; value ranges 1.1-2.7; settings: po
Mus musculus [2] = test: Dose required to cure 50% of Staphylococcus aureus infected mice in the presence of eperezolid when orally administered; value ranges from 0.1-6.6; settings: po
Streptococcus pneumoniae = test: Inhibitory activity against Streptococcus pneumoniae UC9912
[3] = tested on: Staphylococcus epidermidis; test: Inhibitory activity against Methicillin-resistant Staphylococcus epidermidis UC12084
Mus musculus [4] = test: Dose(orally administered) required to cure 50% of Staphylococcus aureus infected mice in the presence of vancomycin; settings: po
Mus musculus [5] = test: Dose(orally administered) required to cure 50% of Staphylococcus aureus infected mice; settings: po
Mus musculus [6] = test: Dose required to cure 50% of Staphylococcus aureus infected mice in the presence of eperezolid when orally administered; value ranges from 1.1-2.8; settings: po
Staphylococcus aureus [7] = test: Inhibitory activity against Methicillin-susceptible Staphylococcus aureus UC9213
Moraxella catarrhalis = test: Inhibitory activity against Moraxella catarrhalis UC30610
Enterococcus faecalis = test: Inhibitory activity against Enterococcus faecalis UC9217
Haemophilus influenzae = test: Inhibitory activity against Haemophilus influenzae UC30063
Staphylococcus aureus [8] = test: Inhibitory activity against Methicillin-resistant Staphylococcus aureus UC6685
Mus musculus [9] = test: Dose required to cure 50% of Staphylococcus aureus infected mice when orally administered; settings: po
Mus musculus [10] = test: Dose required to cure 50% of Staphylococcus aureus infected mice when administered orally; settings: po
Mus musculus [11] = test: Dose required to cure 50% of Staphylococcus aureus infected mice in the presence of eperezolid when administered orally.; settings: po
Mus musculus [12] = test: Dose required to cure 50% of Staphylococcus aureus infected mice in the presence of vancomycin when orally administered; value ranges from 0.5-1.5; settings: po
Mus musculus [13] = test: Dose(orally administered) required to cure 50% of Staphylococcus aureus infected mice in the presence of eperezolid; settings: po
Mus musculus [14] = test: Dose required to cure 50% of Staphylococcus aureus infected mice in the presence of vancomycin when administered orally; value arnges from 1.0-3.2; settings: po
Mus musculus [15] = test: Dose required to cure 50% of Staphylococcus aureus infected mice when administered orally; value ranges from 3.1-13.1; settings: po
Mus musculus [16] = test: Dose(orally administered) required to cure 50% of Staphylococcus aureus infected mice in the presence of eperezolid (95% confidence limits); settings: po
Mus musculus [17] = test: Dose required to cure 50% of Staphylococcus aureus infected mice in the presence of eperezolid when administered orally;value ranges from 1.9-6.6; settings: po
Mus musculus [18] = test: Dose administered required to cure 50% of Staphylococcus aureus infected mice when administered orally; value ranges from 2.0-4.9; settings: po
Mus musculus [19] = test: Dose required to cure 50% of Staphylococcus aureus infected mice when orally administered; value ranges from 3.5-9.1; settings: po
Mus musculus [20] = test: Dose required to cure 50% of Staphylococcus aureus infected mice in the presence of eperezolid when orally administered; value ranges from 2.2-2.9; settings: po
Mus musculus [21] = test: Dose required to cure 50% of Staphylococcus aureus infected mice when aministered orally; value ranges from 0.8-2.0; settings: po
Mus musculus [22] = test: Dose required to cure 50% of Staphylococcus aureus infected mice in the presence of eperezolid when administered orally; value ranges from 1.8-7.0; settings: po
Mus musculus [23] = test: Dose required to cure 50% of Staphylococcus aureus infected mice in the presence of eperezolid when administered orally; value ranges from 1.8-4.4; settings: po

Structure (SMILES)	MIC (Streptococcus pneumoniae)	MIC [3]	ED50 (Mus musculus [5])	MIC (Staphylococcus aureus [7])	MIC (Moraxella catarrhalis)	MIC (Enterococcus faecalis)	MIC (Haemophilus influenzae)	MIC (Staphylococcus aureus [8])	also measured
CC(=O)NC[C@H]1CN(c2ccc(-n3ccc(C#N)c3)c(F)c2)C(=O)O1	≤ 0.125 µg/mL	≤ 0.125 µg/mL							ED50 (Mus musculus [1]): 1.9 mg/kg/day; ED50 (Mus musculus [2]): 4 mg/kg/day
CC(=O)NC[C@H]1CN(c2ccc(-n3ccc(C=O)c3)c(F)c2)C(=O)O1	< 0.06 µg/mL	0.125 µg/mL (≈ 0.362 µM)	> 20 mg/kg/day						ED50 (Mus musculus [4]): 1.7 mg/kg/day
CC(=O)NC[C@H]1CN(c2ccc(-n3cccn3)c(F)c2)C(=O)O1	1 µg/mL (≈ 3.14 µM)	1 µg/mL (≈ 3.14 µM)		2 µg/mL (≈ 6.28 µM)	16 µg/mL (≈ 50.3 µM)	2 µg/mL (≈ 6.28 µM)	32 µg/mL (≈ 101 µM)	2 µg/mL (≈ 6.28 µM)	ED50 (Mus musculus [6]): 1.8 mg/kg/day; ED50 (Mus musculus [9]): > 20 mg/kg/day
CC(=O)NC[C@H]1CN(c2ccc(-n3cnc(Cl)n3)c(F)c2)C(=O)O1	< 0.125 µg/mL	0.5 µg/mL (≈ 1.41 µM)	9.4 mg/kg/day	4 µg/mL (≈ 11.3 µM)	2 µg/mL (≈ 5.65 µM)	2 µg/mL (≈ 5.65 µM)	16 µg/mL (≈ 45.2 µM)	2 µg/mL (≈ 5.65 µM)	ED50 (Mus musculus [4]): 5 mg/kg/day
CC(=O)NC[C@H]1CN(c2ccc(-n3ccc(C(C)=O)c3)c(F)c2)C(=O)O1	0.25 µg/mL (≈ 0.696 µM)	0.5 µg/mL (≈ 1.39 µM)		2 µg/mL (≈ 5.57 µM)	4 µg/mL (≈ 11.1 µM)	1 µg/mL (≈ 2.78 µM)	16 µg/mL (≈ 44.5 µM)	1 µg/mL (≈ 2.78 µM)	ED50 (Mus musculus [10]): 6.5 mg/kg/day; ED50 (Mus musculus [11]): 10 mg/kg/day
CC(=O)NC[C@H]1CN(c2ccc(-n3ccc(CO)c3)c(F)c2)C(=O)O1	0.25 µg/mL (≈ 0.72 µM)	0.25 µg/mL (≈ 0.72 µM)		1 µg/mL (≈ 2.88 µM)	2 µg/mL (≈ 5.76 µM)	1 µg/mL (≈ 2.88 µM)	4 µg/mL (≈ 11.5 µM)	1 µg/mL (≈ 2.88 µM)	ED50 (Mus musculus [12]): 0.9 mg/kg/day; ED50 (Mus musculus [9]): > 20 mg/kg/day
CC(=O)NC[C@H]1CN(c2ccc(-n3cc(C=O)nn3)c(F)c2)C(=O)O1	0.25 µg/mL (≈ 0.72 µM)	< 0.125 µg/mL	> 20 mg/kg/day	0.5 µg/mL (≈ 1.44 µM)	2 µg/mL (≈ 5.76 µM)	0.5 µg/mL (≈ 1.44 µM)	4 µg/mL (≈ 11.5 µM)	0.25 µg/mL (≈ 0.72 µM)	ED50 (Mus musculus [13]): 1.1 mg/kg/day
CC(=O)NC[C@H]1CN(c2ccc(-n3cncn3)c(F)c2)C(=O)O1	1 µg/mL (≈ 3.13 µM)	1 µg/mL (≈ 3.13 µM)		4 µg/mL (≈ 12.5 µM)	16 µg/mL (≈ 50.1 µM)	4 µg/mL (≈ 12.5 µM)	32 µg/mL (≈ 100 µM)	4 µg/mL (≈ 12.5 µM)	ED50 (Mus musculus [14]): 2.4 mg/kg/day; ED50 (Mus musculus [15]): 5.7 mg/kg/day
CCOC(=O)/C=C/c1ccn(-c2ccc(N3C[C@H](CNC(C)=O)OC3=O)cc2F)c1	0.5 µg/mL (≈ 1.2 µM)	2 µg/mL (≈ 4.81 µM)	> 20 mg/kg/day	4 µg/mL (≈ 9.63 µM)	4 µg/mL (≈ 9.63 µM)	2 µg/mL (≈ 4.81 µM)	32 µg/mL (≈ 77 µM)	4 µg/mL (≈ 9.63 µM)	ED50 (Mus musculus [16]): 2.1 mg/kg/day
CC(=O)NC[C@H]1CN(c2ccc(-n3ncc(C#N)n3)c(F)c2)C(=O)O1	≤ 0.125 µg/mL	≤ 0.125 µg/mL		0.5 µg/mL (≈ 1.45 µM)	2 µg/mL (≈ 5.81 µM)	0.5 µg/mL (≈ 1.45 µM)	8 µg/mL (≈ 23.2 µM)	0.5 µg/mL (≈ 1.45 µM)	ED50 (Mus musculus [17]): 3.8 mg/kg/day; ED50 (Mus musculus [18]): 3.2 mg/kg/day
CC(=O)NC[C@H]1CN(c2ccc(-n3ccc(/C=N\O)c3)c(F)c2)C(=O)O1	≤ 0.125 µg/mL								ED50 (Mus musculus [19]): 5.5 mg/kg/day; ED50 (Mus musculus [20]): 2.6 mg/kg/day
CC(=O)NC[C@H]1CN(c2ccc(-n3cc(C#N)cn3)c(F)c2)C(=O)O1	≤ 0.125 µg/mL	0.25 µg/mL (≈ 0.728 µM)							ED50 (Mus musculus [21]): 1.2 mg/kg/day; ED50 (Mus musculus [22]): 3.3 mg/kg/day
COC(=O)c1ccn(-c2ccc(N3C[C@H](CNC(C)=O)OC3=O)cc2F)c1	0.25 µg/mL (≈ 0.666 µM)	0.5 µg/mL (≈ 1.33 µM)		2 µg/mL (≈ 5.33 µM)	16 µg/mL (≈ 42.6 µM)	1 µg/mL (≈ 2.66 µM)	> 16 µg/mL	2 µg/mL (≈ 5.33 µM)	ED50 (Mus musculus [10]): > 20 mg/kg/day; ED50 (Mus musculus [23]): 2.9 mg/kg/day
